According to patent US20230053437A1, “LIPID COMPOUNDS AND LIPID NANOPARTICLE COMPOSITIONS” (Suzhou Abogen Biosciences Co., Ltd., priority 2020, published 2023):

Key:
Type in all cases: physicochemical
[1] = Lipid nanoparticle size by dynamic light scattering (Malvern Zetasizer Nano ZS); details: LNP: cationic lipid/DSPC/cholesterol/PEG-lipid 50:10:38.5:1.5 with hEPO mRNA
Protocol: (§1) Briefly, a cationic lipid provided herein, DSPC, cholesterol, and PEG-lipid were solubilized in ethanol at a molar ratio of 50:10:38.5:1.5, and mRNA were diluted in 10 to 50 mM citrate buffer, pH=4. The LNPs were prepared at a total lipid to mRNA weight ratio of approximately 10:1 to 30:1 by mixing the ethanolic lipid solution with the aqueous mRNA solution at a volume ratio of 1:3 using a microfluidic apparatus, total flow rate ranging from 9-30 mL/min. Ethanol were thereby removed and replaced by DPBS using dialysis. Finally, the lipid nanoparticles were filtered through a […] sterile filter.
(§2) Lipid nanoparticle size were determined by dynamic light scattering using a Malvern Zetasizer Nano ZS (Malvern UK) using a 173° backscatter detection mode. The encapsulation efficiency of lipid nanoparticles were determined using a Quant-it Ribogreen RNA quantification assay kit (Thermo Fisher Scientific, UK) according to the manufacturer's instructions.

[2] = Encapsulation efficiency of lipid nanoparticles, Quant-it Ribogreen RNA quantification assay; details: LNP with hEPO mRNA
Protocol: as §1, §2

[3] = Apparent pKa of LNP formulations, TNS fluorescence assay; details: LNP cationic lipid/DSPC/cholesterol/DMG-PEG 50/10/38.5/1.5 mol %, pH 3 to 9
Protocol: As reported in literature, the apparent pKa of LNP formulations correlates with the delivery efficiency of LNPs for nucleic acids in vivo. The apparent pKa of each formulation was determined using an assay based on fluorescence of 2-(p-toluidino)-6-napthalene sulfonic acid (TNS). LNP formulations comprising of cationic lipid/DSPC/cholesterol/DMG-PEG (50/10/38.5/1.5 mol %) in PBS were prepared as described above. TNS was prepared as a 300 uM stock solution in distilled water. LNP formulations were diluted to 0.1 mg/ml total lipid in 3 mL of buffered solutions containing 50 mM sodium citrate, 50 mM sodium phosphate, 50 mM sodium borate, and 30 mM sodium chloride where the pH ranged from 3 to 9. An aliquot of the TNS solution was added to give a final concentration of 0.1 mg/ml and following vortex mixing fluorescence intensity was measured at room temperature in a Molecular Devices Spectramax iD3 spectrometer using excitation and mission wavelengths of 325 nm and 435 nm. A sigmoidal best fit analysis was applied to the fluorescence data and the pKa value was measured as the pH giving rise to half-maximal fluorescent intensity.

| Compound | polydispersity [1] | size (nm) [1] [nm] | Encapsulation Efficiency [2] [%] | Apparant Pka [3] |
| --- | --- | --- | --- | --- |
| CCCCCCCCCC(=O)OCC1(COC(=O)CCCCCCCCC)CCN(C(=O)CCN(CCCCCC)CCCCCC)CC1 [Compound 32] | 0.13 | 93.36 | 88.2 | 6.34 |
| CCCCCCCCCCCC(=O)OCC1(COC(=O)CCCCCCCCCCC)CCN(C(=O)CCN(C)C)CC1 [Compound 9] | 0.08 | 70.22 | 95.5 |  |
| CCCCCCCCCCCC(=O)OCC1(COC(=O)CCCCCCCCCCC)CCN(C(=O)CCN(CC)CC)CC1 [Compound 27] | 0.11 | 71.72 | 93.6 | 8.27 |
| CCCCCCCCC(CCCCCC)COC(=O)CCCCCC(=O)OCC1(COC(=O)CCCCCC(=O)OCC(CCCCCC)CCCCCCCC)CCN(C(=O)CCN2CCCC2)CC1 (stereo not shown) [Compound 53] | 0.316 | 94.1 | 102.1 | 8.09 |
| CCCCCCCCCCCC(=O)OCC1(COC(=O)CCCCCCCCCCC)CCN(C(=O)CCN(C)CCCn2cnc3c(N)ncnc32)CC1 [Compound 15] | 0.153 | 63.65 | 94.2 | 6.65 |
| CCCCCCCCCCCC(=O)OCC1(COC(=O)CCCCCCCCCCC)CCN(C(=O)CCN(CCO)CCCC)CC1 [Compound 24] | 0.165 | 71.61 | 93.6 | 7.98 |
| CCCCCCCCCCCC(=O)OCC1(COC(=O)CCCCCCCCCCC)CCN(C(=O)CCN2CCCCCC2)CC1 [Compound 7] | 0.101 | 68 | 98.2 | 9.02 |
| CCCCCCCCCCCC(=O)OCC1(COC(=O)CCCCCCCCCCC)CCN(C(=O)CCCN2CCCCCCC2)CC1 [Compound 42] | 0.298 | 78.03 | 96.1 | 7.45 |
| CCCCCCCCCCCC(=O)OCC1(COC(=O)CCCCCCCCCCC)CCN(CCO)CC1 [Compound 1] | 0.096 | 58.53 | 98.8 | 7.30 |
| CCCCCCCCCCCC(=O)OCC1(COC(=O)CCCCCCCCCCC)CCN(C(=O)CCN2CCOCC2)CC1 [Compound 10] | 0.135 | 67.82 | 82.5 | 6.81 |
| CCCCCCCCCCCC(=O)OCC1(COC(=O)CCCCCCCCCCC)CCN(C(=O)CCN(CCO)C(C)C)CC1 [Compound 23] | 0.078 | 77.29 | 93.0 | 7.68 |
| CCCCCCCCCCCC(=O)OCC1(COC(=O)CCCCCCCCCCC)CCN(C(=O)CCN(CCO)CCCCCC)CC1 [Compound 26] | 0.138 | 91.83 | 89.7 | 7.57 |
| CCCCCCCCC(CCCCCC)COC(=O)CCCCCC(=O)OCC1(COC(=O)CCCCCC(=O)OCC(CCCCCC)CCCCCCCC)CCN(C(=O)CCCN2CCCCC2)CC1 (stereo not shown) [Compound 59] | 0.378 | 109.8 | 102.1 | 11.77 |
| CCCCCCCCCCCC(=O)OCC1(COC(=O)CCCCCCCCCCC)CCN(C(=O)CCN(CCCCC)CCCNc2c(N(C)C)c(=O)c2=O)CC1 [Compound 48] | 0.133 | 85.67 | 98.3 | 7.17 |
| CCCCCCCCCCCC(=O)OCC1(COC(=O)CCCCCCCCCCC)CCN(C(=O)CCN(CCC)CCC)CC1 [Compound 28] | 0.142 | 116.2 | 79.2 |  |
